Laboratory results: patent US20090068290A1, “BIFEPRUNOX DOSES FOR TREATING SCHIZOPHRENIA” (priority 2006, published 2009)

Key:
[1] = test system: adult subjects with schizophrenia; experiment: Calgary Depression Scale for Schizophrenia (CDSS), Clinical Study Three; type: in vivo, human; settings: LOCF; for Change from Baseline in CDSS Total Score, Median / Change from Baseline in CDSS Total Score, Mean (SD): 15 mg
Text: SECONDARY OBJECTIVES To assess the efficacy of bifeprunox in treating schizophrenia using the Positive Symptom sub-scale score of the PANSS, the Negative Symptom sub-scale score of the PANSS, the General Psychopathology sub-scale of the PANSS, Brief Psychiatric Rating Scale (BPRS) total score derived from the PANSS, BPRS psychosis score derived from the PANSS, the Clinical Global Impression Severity of Illness score (CGI-S), the Clinical Global Impression Improvement score (CGI-I), CGI-I responder rate, PANSS responder rate based on the PANSS total score, Calgary Depression Scale for Schizophrenia (CDSS), and Subject Satisfaction rating.
There were four treatment arms in this study, approximately 144 subjects per arm. […] After completing the Single-Blind Placebo Lead-in Period of at least three days, bifeprunox-treated subjects were titrated from 0.25 mg up to 20 mg/day or 30 mg/day according to a standardized titration scheme over a seven- or eight-day period, respectively. When the assigned dose was reached, subjects were maintained at that dose for the remainder of the six week treatment period. […] Subjects were hospitalized (if not already inpatients) after eligibility for study entry was verified, starting from the Screening Visit until at least 10 days after Baseline. Subjects could be hospitalized longer than 10 days if considered medically necessary by the Investigator. Rating scale assessments for efficacy and abnormal movement disorders were done weekly except for Week 5. […] Subject satisfaction with study medication was assessed at Week 6.

[2] = test system: adult subjects with schizophrenia; experiment: Adverse events (TEAE, SAE, discontinuation, EPS-related TEAE, anticholinergic use), Clinical Study One; type: in vivo, human
Experimental: METHODOLOGY: This was a randomized, double-blind, fixed-dose, placebo-controlled, risperidone-referenced, parallel group, multi-center study in adult subjects with schizophrenia. There were five treatment groups in this study. […] Study medication was administered once daily. After Baseline measurements were performed, the titration phase was begun. Bifeprunox treated subjects were titrated up to 5 mg, 10 mg or 20 mg according to a standardized titration schedule (Day 1: 0.125 mg, Day 2: 0.25 mg, Day 3: 0.5 mg, Day 4: 1.0 mg, Day 5: 2.0 mg, Day 6: 5.0 mg, Day 7: 10.0 mg, Day 8: 20 mg).

[3] = Pooled metabolic analysis, 6-week studies: body weight; settings: 6-week studies
Text: OBJECTIVE: To examine the metabolic effects of bifeprunox in patients with acute and stable schizophrenia.
METHODS: Metabolic data was compiled from one 6-month and four 6-week studies (i.e., a treatment period) of bifeprunox in patients with stable and acute schizophrenia, respectively. In the 6-month study, patients received bifeprunox (n=331) or placebo (PBO) (n=166). […] Metabolic evaluations included body weight, body mass index (BMI), plasma glucose and lipid profiles. Fasting glucose and lipid values were assessed in one 6-week study and in the 6-month study. Triglyceride:HDL ratio (TG:HDL) was calculated as a marker of insulin resistance. No statistical analyses were performed; only descriptive statistics are presented.

[4] = test system: adult subjects with schizophrenia; experiment: BPRS psychosis cluster score, Clinical Study One; type: in vivo, human; settings: Risperidone 6 mg, ITT population
Experimental: There were five treatment groups in this study. […] Study medication was administered once daily. After Baseline measurements were performed, the titration phase was begun. Bifeprunox treated subjects were titrated up to 5 mg, 10 mg or 20 mg according to a standardized titration schedule (Day 1: 0.125 mg, Day 2: 0.25 mg, Day 3: 0.5 mg, Day 4: 1.0 mg, Day 5: 2.0 mg, Day 6: 5.0 mg, Day 7: 10.0 mg, Day 8: 20 mg). When the assigned dose was reached, subjects were maintained at that dose for the remainder of the six-week treatment period.

With `Cc1cc2c(s1)Nc1ccccc1N=C2N1CCN(C)CC1` [Olanzapine, olanzapine, reference compound] the “Change from Baseline in CDSS Total Score, Median” value ([1]; Week 1) was −1.0, the “Change from Baseline in CDSS Total Score, Mean (SD)” value (from here on “Change from Baseline … (SD)”) ([1]; Week 2) was −1.33 (3.33) and the “Change from Baseline in CDSS Total Score, Median” value ([1]; Week 2) was −1.0. The “Change from Baseline … (SD)” value ([1]; Week 3) was −1.59 (3.43), the “Change from Baseline in CDSS Total Score, Median” value ([1]; Week 3) was −1.0 and the “Change from Baseline … (SD)” value ([1]; Week 4) was −1.49 (3.89). The “Change from Baseline in CDSS Total Score, Median” value ([1]; Week 4) was −1.0, the “Change from Baseline … (SD)” value ([1]; Week 6, Endpoint) was −1.47 (3.95) and the “Change from Baseline in CDSS Total Score, Median” value ([1]; Week 6, Endpoint) was −1.0. For the same molecule, the “mean change (SD) from Baseline to Endpoint in CDSS score” value ([1]; olanzapine 15 mg, ITT) was −1.47 (3.95).

With `Cc1nc2n(c(=O)c1CCN1CCC(c3noc4cc(F)ccc34)CC1)CCCC2` [Risperidone, risperidone, reference compound] the “TEAE Akathisia, %” value ([2]; 6 mg, Safety Population) was “(5%)”, the “TEAE Muscle Spasms, %” value ([2]; 6 mg, Safety Population) was “(2%)” and the “TEAE Musculoskeletal Stiffness, %” value ([2]; 6 mg, Safety Population) was “(<1%)”. For the same molecule, the “TEAE Myalgia, %” value ([2]; 6 mg, Safety Population) was “(2%)”, the “TEAE NERVOUS SYSTEM DISORDERS, %” value ([2]; 6 mg, Safety Population) was “(49%)” and the “TEAE Neck Pain, %” value ([2]; 6 mg, Safety Population) was “(2%)”. For the same molecule, the “TEAE Neck Stiffness, %” value ([2]; 6 mg, Safety Population) was “(<1%)”, the “TEAE Pain in Jaw, %” value ([2]; 6 mg, Safety Population) was “(<1%)” and the “TEAE Pain in Limb, %” value ([2]; 6 mg, Safety Population) was “(2%)”. For the same molecule, the “Affect Lability, %” value ([2]; Risperidone 6 mg) was “(<1%)”, the “Agitation, %” value ([2]; Risperidone 6 mg) was “(8%)” and the “Alcoholic Hangover, %” value ([2]; Risperidone 6 mg) was “(<1%)”. The “Anxiety Aggravated, %” value ([2]; Risperidone 6 mg) was “(3%)”, the “Anxiety, %” value ([2]; Risperidone 6 mg) was “(6%)” and the “DIZZINESS, %” value ([2]; Risperidone 6 mg) was “(5%)”. For the same molecule, the “DYSARTHRIA, %” value ([2]; Risperidone 6 mg) was “(2%)”, the “Disturbance in Attention, %” value ([2]; Risperidone 6 mg) was “(<1%)” and the “Drooling, %” value ([2]; Risperidone 6 mg) was “(2%)”. The “Dystonia, %” value ([2]; Risperidone 6 mg) was “(4%)”, the “EXTRAPYRAMIDAL DISORDER, %” value ([2]; Risperidone 6 mg) was “(3%)” and the “Gait Feastinating, %” value ([2]; Risperidone 6 mg) was “(<1%)”. The “Headache Nos, %” value ([2]; Risperidone 6 mg) was “(28%)”, the “Hypoaesthesia, %” value ([2]; Risperidone 6 mg) was “(<1%)” and the “Migraine Aggravated, %” value ([2]; Risperidone 6 mg) was “(<1%)”. For the same molecule, the “Oculogyric Crisis, %” value ([2]; Risperidone 6 mg) was “(<1%)”, the “PARAESTHESIA, %” value ([2]; Risperidone 6 mg) was “(<1%)” and the “PSYCHIATRIC DISORDERS, %” value ([2]; Risperidone 6 mg) was “(39%)”. The “SEDATION, %” value ([2]; Risperidone 6 mg) was “(13%)”, the “SOMNOLENCE, %” value ([2]; Risperidone 6 mg) was “(22%)” and the “TREMOR, %” value ([2]; Risperidone 6 mg) was “(<1%)”. For the same molecule, the “incidence of aggravated schizophrenia NOS (SAE)” value ([2]; Risperidone 6 mg) was 4%, the “subjects with at least one AE that led to discontinuation” value ([2]; Risperidone 6 mg) was 14% and the “subjects with at least one SAE” value ([2]; Risperidone 6 mg) was 16%. For the same molecule, the “subjects with at least one TEAE” value ([2]; Risperidone 6 mg) was 89%, the suicide attempt ([2]; Risperidone 6 mg) was “no subjects” and the “mean weight increase at endpoint” value ([3]; pooled) was 1.7 kg. The mean weight change ([3]; pooled (overall summary)) was “+1.7 kg”, the “Change from Baseline in BPRS Psychosis Cluster Score, Mean (S.D.)” value (shortened to “Change from Baseline … (S.D.)”) ([4]; Endpoint LOCF) was −4.1 (3.5) and the “Change from Baseline in BPRS Psychosis Cluster Score, Median” value ([4]; Endpoint LOCF) was −4. For the same molecule, the “Change from Baseline … (S.D.)” value ([4]; Week 1, LOCF) was −2.2 (2.7), the “Change from Baseline in BPRS Psychosis Cluster Score, Median” value ([4]; Week 1, LOCF) was −2 and the “Change from Baseline in BPRS Psychosis Cluster Score, Mean S.D.” value ([4]; Week 2, LOCF) was −3.6 (3.2). For the same molecule, the “Change from Baseline in BPRS Psychosis Cluster Score, Median” value ([4]; Week 2, LOCF) was −3, the “Change from Baseline … (S.D.)” value ([4]; Week 3, LOCF) was −4.1 (3.4) and the “Change from Baseline in BPRS Psychosis Cluster Score, Median” value ([4]; Week 3, LOCF) was −4. For the same molecule, the “Change from Baseline … (S.D.)” value ([4]; Week 4, LOCF) was −3.9 (3.3) and the “Change from Baseline in BPRS Psychosis Cluster Score, Median” value ([4]; Week 4, LOCF) was −4.
